For the test, the system named is immortalized knock-in murine astrocytes expressing human ApoE4. The test is described as follows: Production (stable isotope labeling kinetics, SILT) of human ApoE4 in immortalized knock-in murine astrocytes. The test is classed as cell-based. The settings on record: 50% 13C6-leucine in media, media collected over 48 hours, n=3; calculated from initial slope and plateau TTR. The procedure:
FIG. 5 presents the production of human ApoE4 in immortalized knock-in murine astrocytes. ApoE4 expressing astrocytes were grown to confluency. ^13C6-Leucine was added to the media at time t=0 bringing the total percent ^13C6-leucine to 50%. Media was collected over 48 hours. ApoE was captured using liposorb, reduced and alkylated, and digested with trypsin. ApoE4 specific peptides were analyzed by nano-LC MS/MS. The SILT method was used to determine the incorporation of ^13C6-leucine into ApoE (n=3, error bars SEM). The fractional synthetic rate (FSR) of ApoE4 was calculated using initial slope and plateau tracer to tracee ratio (TTR) of 8.5% per hour. […]
ApoE was isolated either by overnight incubation with anti-ApoE antibody (WUE4) coupled to CNBr-activated Sepharose beads, or incubation for 30 min (4° C.) with PHM-Liposorb™ (Calbiochem, San Diego, Calif.). […] After desalting using Nu-tip carbon tips (Glygen Corp., Columbia, Md.), the supernatant containing ApoE peptides was analyzed by nano-LC tandem MS (Thermo-Finnigan LTQ equipped with a New Objective nanoflow ESI source) as previously described (Bateman et al., 2006, Nature Medicine, 12:856-861). The samples were quantitated using the stable-isotope tandem labeled (SILT) mass spectroscopy method as described by Bateman et al. 2007 J Am Soc Mass Spectrum 18(6):[…]. […]

Here are results for one substance from patent publication US20110294138A1, “METHODS FOR SIMULTANEOUSLY MEASURING THE IN VIVO METABOLISM OF TWO OR MORE ISOFORMS OF A BIOMOLECULE” (THE WASHINGTON UNIVERSITY, priority 2008, published 2011).

On to “ApoE4: Human apolipoprotein E isoform ApoE4 (arg112, arg158), endogenous protein whose metabolism is measured”, for which the “fractional synthetic rate (FSR) of ApoE4” value is 8.5 % per hour.
